According to patent US20250250251A1, “PIPERIDINYLPYRIDINYLCARBONITRILE DERIVATIVES AS INHIBITORS OF GLUTAMINYL-PEPTIDE CYCLOTRANSFERASE AND GLUTAMINYL-PEPTIDE CYCLOTRANSFERASE LIKE PROTEIN” (Boehringer Ingelheim International GmbH, priority 2024, published 2025):

Assays:
[1] = tested on: murine hepatocytes; experiment: Assay E: stability in murine hepatocytes; assay type: in vitro ADME, mouse; conditions: Table 13, prior art compounds, 1 μM, 5% species serum
Summary of the method: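 Cryopreserved mouse hepatocytes, typically 1 Mio cells/mL in medium with 5% species serum, were dosed at 1 μM compound (0.05% DMSO) at 37 °C and sampled over 0–6 h. Parent decline was measured by HPLC-MS/MS and CLint calculated from dose/AUC, then scaled by well-stirred liver model.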

[2] = tested on: cellular (Ramos) QPCTL activity; conditions: Ramos cells, as disclosed in WO 2024/020517; read-out: Inhibitory activity of cellular (Ramos) QPCTL activity in a FACS assay; cited from earlier work

Mouse Hepatocyte Stability QH [1]: 45%
Structure (SMILES): Cn1cnnc1C1CCN(c2c(-c3ccnnc3)ccc(Cl)c2C#N)CC1 [Compound 33, reference compound]
IC50 [2]: < 100 nM
